From patent US6545131B1, “Tissue specific prodrug” (priority 1997, dated 2003)
Starred links: 1 amine or outer side, 2 acyl side, 3 side chain; linkers in the order of their positions; H or OH if unused. Residues, ends and D or L forms follow the SMILES beside them. *: point of attachment. Mu = morpholinocarbonyl, O=C(N1CCOCC1)*; AMC = Cc1cc(=O)oc2cc(N*)ccc12; Morpholide = C1CN(*)CCO1; CO = O=C([*:1])[*:2]

Experiments:
[1] = biological target: T1, PSA (prostate specific antigen) (Homo sapiens, UniProt P07288); assay: Cleavage of AMC-labelled peptide substrates by purified PSA (fluorescence of released AMC; Lineweaver-Burke kinetics); assay type: biochemical; conditions: 0.2 mM substrate
T1 construct: PSA was purified from human seminal plasma; from tissue; host or cells: human seminal plasma
T1 sequence (P07288 25-261): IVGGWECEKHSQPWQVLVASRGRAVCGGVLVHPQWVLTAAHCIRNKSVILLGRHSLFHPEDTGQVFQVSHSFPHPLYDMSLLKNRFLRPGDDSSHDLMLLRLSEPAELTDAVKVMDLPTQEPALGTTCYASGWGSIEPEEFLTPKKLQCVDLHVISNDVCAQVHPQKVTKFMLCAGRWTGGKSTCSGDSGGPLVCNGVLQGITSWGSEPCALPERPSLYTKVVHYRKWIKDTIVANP
Procedure: (§1) The peptides discussed herein were custom synthesized by Enzyme Systems Products (Dublin, Calif.) and, after HPLC separation and purification to >95%, the molecular weights were confirmed by mass spectroscopy. All peptides had morpholinocarbonyl protecting the amino terminus and 7-amino-4-methylcoumarin (AMC) attached via an amide bond to the carboxyl group of the carboxy-terminal amino acid. Peptides were first dissolved in distilled water (5 mM) and then diluted into PSA assay buffer (50 mM Tris/0.1M NaCl pH 7.8). The glutamine-AMC peptide had the amino terminus and side chain amine unprotected and was obtained from Bachem (Torrance, Calif.).
(§2) PSA was purified from human seminal plasma as described in Christensson, et al. Eur. J. Biochem. 194:755-765, (1990). Plasmin, urokinase, tissue plasminogen activator (TPA), human plasma and porcine pancreatic kallikrein and a 1-antichymotrypsin were obtained from Calbiochem (San Diego, Calif.). All other proteases were obtained from Sigma Chemical Co. (St. Louis, Mo.). Mouse serum was obtained from East Acres Biologicals (South Bridge, Mass.). Goat and calf sera were obtained from Gibco BRL (Grand Island, N.Y.). Rat serum was obtained in-house from sacrificed animals. Human serum was obtained from volunteers.
(§3) Cleavage was studied by measuring fluorescence change secondary to AMC release. Fluorescence detection was carried out with a Fluoroskan II 96 well fluorometric plate reader (ICN Biomedicals, Costa Mesa, Calif.), with excitation wavelength 355 nm and emission wavelength 460 nm. Data were collected and analyzed using Deltasoft III software (Biometallics, Princeton, N.J.). All reactions were performed at room temperature by the addition of substrate and proteases into PSA buffer, described below, in a final volume of 200 μL. The results were determined from the initial linear increase of fluorescence and were expressed as the picomoles of AMC released per minute based upon comparison to a standard curve of the fluorescence of known amounts of AMC (i.e., fluorescence was linear form 20 to 300 picomoles of AMC). The data were analyzed by Lineweaver-Burke reciprocal plots to determine the Michaelis-Menten constant (i.e., Km) expressed as the amount of substrate needed to saturate half of the enzyme and the catalytic rate constant (i.e., kcat) expressed as the amount of substrate converted to product per time per amount of enzyme.
(§4) Each assay contains 200 picomoles of the particular protease and 0.2 mM concentration of the particular substrate (i.e., 40,000 picomoles/200 μL of assay volume). The amino acid sequences expressed in one letter amino acid code represent the following amino acid sequences in the three letter amino acid code: EHSSKLQ (Glu-His-Ser-Ser-Lys-Leu-Gln; SEQ ID NO:10), QNKISYQ (Gln-Asn-Lys-Ile-Ser-Tyr-Gln; SEQ ID NO:11), ENKISYQ (Glu-Asn-Lys-Ile-Ser-Tyr-Gln; SEQ ID NO:12), and ATKSKQH (Ala-Thr-Lys-Ser-Lys-Gln-His; SEQ ID NO:13). Determinations listed in the table were carried out with substrates at 0.2 mM concentration in the PSA assay buffer (50 mM Tris/0.1M NaCl pH 7.8). The entry “UD” stands for “undetectable” and means that at most, 0.1 pmole of substrate cleavage per minute per 200 pmole protease took place. Asterisks represent experiments not performed. Abbreviations are as follows: PSA (prostate specific antigen), Chymo (chymotrypsin), Urokin (urokinase), TPA (tissue plasminogen activator), Thromb (thrombin), Kallik (human kallikrein, hK1).
The data in Table 2 are the results of kinetic experiments with the peptide substrates used in Example 1. Experimental details are found in Example 1.
The amino acid sequences expressed in one letter amino acid code represent the following amino acid sequences in the three letter amino acid code: EHSSKLQ (Glu-His-Ser-Ser-Lys-Leu-Gln; SEQ ID NO:10), HSSKLQ (His-Ser-Ser-Lys-Leu-Gln; SEQ ID NO:7), SKLQ (Ser-Lys-Leu-Gln; SEQ ID NO:1), and ATKSKQH (Ala-Thr-Lys-Ser-Lys-Gln-His; SEQ ID NO:13). […]

[2] = system: Elastase; assay: Peptide-AMC cleavage by purified extracellular protease; assay type: biochemical; conditions: 0.2 mM substrate, PSA assay buffer pH 7.8
Procedure: as §1, §2, §3, §4

[3] = biological target: T2, Plasmin (Homo sapiens, UniProt P00747); assay: as above; assay type: biochemical; conditions: 0.2 mM substrate, PSA assay buffer pH 7.8
T2 construct: purchased Calbiochem
T2 sequence (P00747 581-810 limits assumed, species assumed): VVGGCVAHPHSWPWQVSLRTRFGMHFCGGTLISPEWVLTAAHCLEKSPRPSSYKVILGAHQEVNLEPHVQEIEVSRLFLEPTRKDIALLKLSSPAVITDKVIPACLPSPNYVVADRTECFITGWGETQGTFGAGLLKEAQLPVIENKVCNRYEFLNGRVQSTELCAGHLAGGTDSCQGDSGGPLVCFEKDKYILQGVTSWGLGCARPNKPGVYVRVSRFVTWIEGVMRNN
T2 sequence (P00747 97-580 partner limits assumed, species assumed): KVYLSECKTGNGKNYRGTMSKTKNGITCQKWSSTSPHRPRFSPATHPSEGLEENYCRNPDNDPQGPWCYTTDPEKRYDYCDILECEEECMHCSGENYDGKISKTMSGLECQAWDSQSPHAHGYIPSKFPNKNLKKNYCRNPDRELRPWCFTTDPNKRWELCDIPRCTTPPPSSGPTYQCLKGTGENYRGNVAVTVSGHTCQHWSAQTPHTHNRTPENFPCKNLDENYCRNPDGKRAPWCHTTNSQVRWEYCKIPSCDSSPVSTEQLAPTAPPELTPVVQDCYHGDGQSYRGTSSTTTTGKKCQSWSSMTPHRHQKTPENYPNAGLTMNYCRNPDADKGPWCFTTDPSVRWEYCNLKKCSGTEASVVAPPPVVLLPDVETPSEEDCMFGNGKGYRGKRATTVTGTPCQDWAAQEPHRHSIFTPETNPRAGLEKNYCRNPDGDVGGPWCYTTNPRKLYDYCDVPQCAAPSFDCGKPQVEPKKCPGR
Procedure: as §1, §2, §3, §4

[4] = system: Trypsin; assay: as above; assay type: biochemical; conditions: 0.2 mM substrate, PSA assay buffer pH 7.8
Procedure: as §1, §2, §3, §4

[5] = biological target: T3, chymotrypsin (Bos taurus, UniProt P00766); assay: as above; assay type: biochemical; conditions: 0.2 mM substrate, PSA assay buffer pH 7.8
T3 construct: purchased Sigma Chemical Co
Procedure: as §1, §2, §3, §4

[6] = biological target: T4, thrombin (Homo sapiens, UniProt P00734); assay: as above; assay type: biochemical; conditions: 0.2 mM substrate, PSA assay buffer pH 7.8
T4 construct: purchased Sigma Chemical Co
Procedure: as §1, §2, §3, §4

[7] = biological target: T5, tissue plasminogen activator (TPA) (Homo sapiens, UniProt P00750); assay: as above; assay type: biochemical; conditions: 0.2 mM substrate, PSA assay buffer pH 7.8
T5 construct: purchased Calbiochem
T5 sequence (P00750 36-562, species assumed): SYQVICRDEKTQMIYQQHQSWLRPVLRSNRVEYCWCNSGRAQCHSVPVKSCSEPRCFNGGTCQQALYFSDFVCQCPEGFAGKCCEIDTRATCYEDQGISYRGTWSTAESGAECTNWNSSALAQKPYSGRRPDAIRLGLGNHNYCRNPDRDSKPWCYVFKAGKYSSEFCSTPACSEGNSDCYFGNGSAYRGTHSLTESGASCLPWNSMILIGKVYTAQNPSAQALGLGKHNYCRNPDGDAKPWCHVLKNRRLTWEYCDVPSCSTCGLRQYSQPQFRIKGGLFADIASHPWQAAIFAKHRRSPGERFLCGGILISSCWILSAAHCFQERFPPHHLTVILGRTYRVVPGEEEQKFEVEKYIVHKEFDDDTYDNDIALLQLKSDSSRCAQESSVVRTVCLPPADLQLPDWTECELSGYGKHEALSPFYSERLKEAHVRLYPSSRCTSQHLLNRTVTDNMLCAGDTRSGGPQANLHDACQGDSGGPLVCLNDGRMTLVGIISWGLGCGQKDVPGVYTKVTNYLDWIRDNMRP
Procedure: as §1, §2, §3, §4

[8] = Stability of PSA substrates in serum (AMC release); assay type: in vitro ADME; conditions: 0.2 mM substrate
Excerpt: as §2, §3
Because the prodrug can be given systemically via the blood, it is useful to determine the stability of the substrates in sera from a variety of species. The substrates and experimental details are found as described in Example 1.
The amino acid sequences expressed in one letter amino acid code represent the following amino acid sequences in the three letter amino acid code: EHSSKLQ (Glu-His-Ser-Ser-Lys-Leu-Gln; SEQ ID NO:10), QNKISYQ (Gln-Asn-Lys-Ile-Ser-Tyr-Gln; SEQ ID NO:11), ENKISYQ (Glu-Asn-Lys-Ile-Ser-Tyr-Gln; SEQ ID NO:12) and ATKSKQH (Ala-Thr-Lys-Ser-Lys-Gln-His; SEQ ID NO:13). Determinations listed in the table were carried out with substrates at 0.2 mM concentration in the PSA assay buffer (50 mM Tris/0.1M NaCl pH 7.8). AMC is 7-amino-4-methylcoumarin. The human serum used was 100% for each assay. The entry “UD” stands for “undetectable”, and means that not more than 0.01 picomole of substrate per minute was cleaved.

[9] = system: TSU-Pr1 cells; assay: Clonogenic survival of TSU-Pr1 cells after 72 hours exposure to TG analogs; assay type: cell-based, human; conditions: TSU-Pr1, 72 hours exposure; mean (n=5) ± standard error; read-out: LC50 (concentration needed to kill 50% of clonogenic cells)
Procedure: The primary amine-containing thapsigargin analogs of the invention have non-specific toxicity toward cells. This toxicity is measured as the concentration of analog needed to kill 50% of clonogenic cells (LC50). The LC50 of the analogs of the invention is desirably at most 20 μM, preferably at most 5 μM, and more preferably at most 500 nM of analog.
Percentage clonogenic survival of TSU-Pr1 (2×10^5 cells) following 72 hours of exposure to varying concentrations of TG analogs was performed as described in Martikainen et al. Cancer Res., 51, 4693-4700 (1991).
The IC50 results are mean (n=3)±standard error. The LC50 results are mean (n=5)±standard error. The entry “ND” stands for “not determined”. Clonogenic survival not determined above 10 μM for dBTG. Analogs with −boc have a t-butoxycarbonyl (boc) protected amino group.
The androgen responsive PSA-producing LNCaP and androgen independent PSA non-producing TSU-Pr1 are human prostate cancer lines were obtained from ATCC (Rockville, Md.) and maintained by serial passage in RPMI 1640 media containing 10% fetal calf serum with 100 units/ml penicillin G, and 100 units/ml streptomycin sulfate (antibiotics from M.A. Bioproducts, Walkerville, Md.) as standard media in 5% CO2/95% air at 37° C. The origins and characteristics of the LNCaP and TSU-Pr1 cell lines are described in Horoszewicz, et al., Cancer Res., 43:1809-1818, (1980)and Iizumi, et al., J. Urol, 137: 1304-1306, (1987).

[10] = biological target: T6, Cathepsin B (Homo sapiens, UniProt P07858); assay: PSA substrate cleavage by purified intracellular protease; assay type: biochemical; conditions: 0.2 mM substrate, pH 7.8; SKLQ, KLQ, LQ in 1.4% acetonitrile/buffer, Q-AMC in 0.2% formic acid/buffer
T6 construct: purchased Sigma Chemical Co
Procedure: as §3
(§5) A family of peptide substrates based upon the EHSSKLQ (SEQ ID NO:10) sequence was assayed for activity for the intracellular proteases, and the results given in Table 4.
(§6) The amino acid sequences expressed in one letter amino acid code represent the following amino acid sequences in the three letter amino acid code: EHSSKLQ (Glu-His-Ser-Ser-Lys-Leu-Gln; SEQ ID NO:10), The shorter sequences are formed by deleting amino acids from the amino terminal side of the sequence. Determinations listed in the table were carried out with substrates at 0.2 mM concentration in the PSA assay buffer (50 mM Tris/0.1M NaCl pH 7.8), except SKLQ (SEQ ID NO:1), KLQ and LQ, which were carried out in 1.4% acetonitrile/buffer and Q-AMC which was carried out in 0.2% formic acid/buffer, at pH 7.8. The entry “UD” stands for “undetectable” and means that at most, 0.1 pmole of substrate cleavage per minute per 200 pmole protease took place. Asterisks represent experiments not performed. Abbreviations are as follows: PSA (prostate specific antigen), Cath B, C, D (Cathepsins, B, C, D), Esterase (porcine liver esterase).

[11] = biological target: T7, Cathepsin C (Homo sapiens, UniProt P53634); assay: as above; assay type: biochemical; conditions: 0.2 mM substrate, pH 7.8; SKLQ, KLQ, LQ in 1.4% acetonitrile/buffer, Q-AMC in 0.2% formic acid/buffer
T7 construct: purchased Sigma Chemical Co
T7 sequence (P53634 25-463): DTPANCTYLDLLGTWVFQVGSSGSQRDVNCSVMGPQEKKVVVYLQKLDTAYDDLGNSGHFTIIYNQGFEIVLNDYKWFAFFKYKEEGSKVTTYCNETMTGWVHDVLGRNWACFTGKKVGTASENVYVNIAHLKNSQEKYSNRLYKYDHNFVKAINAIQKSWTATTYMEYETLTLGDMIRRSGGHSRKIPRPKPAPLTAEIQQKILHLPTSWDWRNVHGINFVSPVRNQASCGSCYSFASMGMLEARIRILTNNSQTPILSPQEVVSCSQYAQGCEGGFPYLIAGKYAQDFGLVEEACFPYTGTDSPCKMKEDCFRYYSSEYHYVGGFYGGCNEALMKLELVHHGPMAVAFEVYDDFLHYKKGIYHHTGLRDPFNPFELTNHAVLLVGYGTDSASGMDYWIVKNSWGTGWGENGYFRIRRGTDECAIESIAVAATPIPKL
Procedure: as §3, §5, §6

[12] = system: porcine liver esterase; assay: as above; assay type: biochemical; conditions: 0.2 mM substrate, pH 7.8; SKLQ, KLQ, LQ in 1.4% acetonitrile/buffer, Q-AMC in 0.2% formic acid/buffer
Procedure: as §3, §5, §6

CC[C@H](C)[C@H](NC(=O)[C@H](CCCCN)NC(=O)[C@H](CC(N)=O)NC(=O)[C@H](CCC(N)=O)NC(=O)N1CCOCC1)C(=O)N[C@@H](CO)C(=O)N[C@@H](Cc1ccc(O)cc1)C(=O)N[C@@H](CCC(N)=O)C(=O)Nc1ccc2c(C)cc(=O)oc2c1 [QNKISYQ, Gln-Asn-Lys-Ile-Ser-Tyr-Gln] ({Morpholide-CO}-QNKISYQ-{AMC})
Picomoles of substrate cleaved/minute/200 pmoles of indicated protease: PSA ([1]; PSA assay buffer pH 7.8, room temperature): 16.8 picomoles/minute/200 pmoles pr | Picomoles of substrate cleaved/minute/200 pmoles of indicated protease: Elastase [2]: 9.0 picomoles/minute/200 pmoles pr | Picomoles of substrate cleaved/minute/200 pmoles of indicated protease: Plasmin [3]: UD (at most, 0.1 pmole of substrate cleavage per minute per 200 pmole protease took place) | Picomoles of substrate cleaved/minute/200 pmoles of indicated protease: Trypsin [4]: UD (at most, 0.1 pmole of substrate cleavage per minute per 200 pmole protease took place) | Picomoles of substrate cleaved/minute/200 pmoles of indicated protease: Chymo [5]: 9.0 picomoles/minute/200 pmoles pr | Picomoles of substrate cleaved/minute/200 pmoles of indicated protease: Thromb [6]: 0.4 picomoles/minute/200 pmoles pr | Picomoles of substrate cleaved/minute/200 pmoles of indicated protease: TPA [7]: 0.4 picomoles/minute/200 pmoles pr | picomles AMC released/minute: Calf [8]: UD (not more than 0.01 picomole of substrate per minute was cleaved) | picomles AMC released/minute: Fetal Calf [8]: 11.60 picomoles/minute | picomles AMC released/minute: Goat [8]: 5.54 picomoles/minute | picomles AMC released/minute: Mouse [8]: 1.67 picomoles/minute | picomles AMC released/minute: Rat [8]: 10.7 picomoles/minute | picomles AMC released/minute: Human ([8]; human serum 100%): 1.54 picomoles/minute

C/C=C(/C)C(=O)OC1C(C)=C2C(C1OC(=O)CCCCCCC)C(C)(OC(C)=O)CC(OC(=O)Cc1ccc(N)cc1)C1(O)C2OC(=O)C1(C)O (centres unmarked) [AAT, 8-O-(2-[4-aminophenyl]acetyl)-8-O-debutanoylthapsigargin]
CC50 [9]: > 10 µM

8-O-(2-[4-t-butoxycarbonylaminophenyl]acetyl)-8-O-debutanoylthapsigargin [AAT-boc]
CC50 [9]: > 10 µM

C/C=C(/C)C(=O)OC1C(C)=C2C(C1OC(=O)CCCCCCC)C(C)(OC(C)=O)CC(OC(=O)c1ccc(NC(=O)OC(C)(C)C)cc1)C1(O)C2OC(=O)C1(C)O (centres unmarked) [ABT-boc, 8-O-(4-t-butoxycarbonylaminobenzoyl)-8-O-debutanoylthapsigargin]
CC50 [9]: 12 ± 0.3 µM

KLQ: shorter sequence formed by deleting amino acids from the amino terminal side of EHSSKLQ; AMC substrate (Mu-Lys-Leu-Gln-{AMC}; also: AMC substrate)
picomoles of peptide cleaved/min/200 picomoles protease: PSA ([1]; pH 7.8, SKLQ, KLQ, LQ in 1.4% acetonitrile/buffer, Q-AMC in 0.2% formic acid/buffer): 0.4 picomoles/min/200 picomoles pr | picomoles of peptide cleaved/min/200 picomoles protease: Cath B [10]: 87.0 picomoles/min/200 picomoles pr | picomoles of peptide cleaved/min/200 picomoles protease: Cath C [11]: UD (at most, 0.1 pmole of substrate cleavage per minute per 200 pmole protease took place) | picomoles of peptide cleaved/min/200 picomoles protease: Esterase [12]: UD (at most, 0.1 pmole of substrate cleavage per minute per 200 pmole protease took place)
